According to patent US9096596B2 (Janssen Pharmaceutica NV, priority 2013, dated 2015):

Biological target: rat P2X7 (Rattus norvegicus (Rat), UniProt Q64663)
Test: Ca2+ flux (FLIPR) in 1321N1 cells expressing recombinant rat P2X7 channel
Assay type: cell-based
Details: 250 μM BzATP, Calcium-4 dye
Procedure: 1321N1 cells expressing the recombinant human, rat or mouse P2X7 channel was cultured in HyQ DME/(HyClone/Dulbecco's Modified Eagle Medium) high glucose supplemented with 10% Fetal Bovine Serum (FBS) and appropriate selection marker. Cells were seeded at a density of 25000 cells/well (96-well clear bottom black walled plates) in 100 μl volume/well. On the day of the experiment, cell plates were washed with assay buffer, containing (in mM): 130 NaCl, 2 KCl, 1 CaCl2, 1 MgCl2, 10 HEPES, 5 glucose; pH 7.40 and 300 mOs. After the wash, cells were loaded with the Calcium-4 dye (Molecular Device) and incubated in the dark for 60 minutes. Test compounds were prepared at 250× the test concentration in neat DMSO. Intermediate 96-well compound plates were prepared by transferring 1.2 μL of the compound into 300 μL of assay buffer. A further 3× dilution occurred when transferring 50 μL/well of the compound plate to 100 μL/well in the cell plate. Cells were incubated with test compounds and dye for 30 minutes. […] The fluorescence change was measured 180 seconds after adding the agonist.

rat P2X7, sequence (Q64663 whole entry): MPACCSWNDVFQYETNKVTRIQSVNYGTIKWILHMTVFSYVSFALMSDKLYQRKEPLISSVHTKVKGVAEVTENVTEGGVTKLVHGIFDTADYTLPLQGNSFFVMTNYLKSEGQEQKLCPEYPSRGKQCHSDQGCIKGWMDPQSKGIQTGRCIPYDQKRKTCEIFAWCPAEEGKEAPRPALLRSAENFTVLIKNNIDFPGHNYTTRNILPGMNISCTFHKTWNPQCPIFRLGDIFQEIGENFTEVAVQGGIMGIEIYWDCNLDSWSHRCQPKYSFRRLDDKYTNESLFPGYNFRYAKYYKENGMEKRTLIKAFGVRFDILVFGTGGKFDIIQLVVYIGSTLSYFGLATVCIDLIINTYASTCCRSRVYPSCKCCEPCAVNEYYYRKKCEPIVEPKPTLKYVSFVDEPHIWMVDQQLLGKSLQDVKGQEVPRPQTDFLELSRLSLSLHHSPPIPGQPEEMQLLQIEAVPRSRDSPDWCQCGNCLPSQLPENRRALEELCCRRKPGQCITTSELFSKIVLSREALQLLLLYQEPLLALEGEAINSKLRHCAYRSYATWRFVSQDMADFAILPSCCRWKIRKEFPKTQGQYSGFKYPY

SMILES	IC50 [nM]
Cc1nc2c(c(-c3ccn[nH]3)n1)C[C@@H](C)N(C(=O)c1cccc(Cl)c1Cl)C2 (single isomer, unassigned) [Example 68, (R*)-(2,3-dichlorophenyl)(2,6-dimethyl-4-(1H-pyrazol-5-yl)-5,6-dihydropyrido[3,4-d]pyrimidin-7(8H)-yl)methanone]	8.8
Cc1nc2c(c(-c3ccn[nH]3)n1)C[C@H](C)N(C(=O)c1cccc(Cl)c1Cl)C2 (single isomer, unassigned) [Example 69, (S*)-(2,3-dichlorophenyl)(2,6-dimethyl-4-(1H-pyrazol-5-yl)-5,6-dihydropyrido[3,4-d]pyrimidin-7(8H)-yl)methanone]	938
Cc1nc2c(c(-c3ccn[nH]3)n1)C[C@@H](C)N(C(=O)c1ccc(F)cc1Cl)C2 (single isomer, unassigned) [Example 91, (R*)-(2-chloro-4-fluorophenyl)(2,6-dimethyl-4-(1H-pyrazol-5-yl)-5,6-dihydropyrido[3,4-d]pyrimidin-7(8H)-yl)methanone]	132
Cc1nc2c(c(-c3ccn[nH]3)n1)C[C@H](C)N(C(=O)c1ccc(F)cc1Cl)C2 (single isomer, unassigned) [Example 92, (S*)-(2-chloro-4-fluorophenyl)(2,6-dimethyl-4-(1H-pyrazol-5-yl)-5,6-dihydropyrido[3,4-d]pyrimidin-7(8H)-yl)methanone]	5960
C[C@@H]1c2ncnc(-c3ccn[nH]3)c2CCN1C(=O)c1cccc(C(F)(F)F)c1Cl (single isomer, unassigned) [Example 113, (R*)-(2-chloro-3-(trifluoromethyl)phenyl)(8-methyl-4-(1H-pyrazol-5-yl)-5,6-dihydropyrido[3,4-d]pyrimidin-7(8H)-yl)methanone]	9.1
C[C@H]1c2ncnc(-c3ccn[nH]3)c2CCN1C(=O)c1cccc(C(F)(F)F)c1Cl (single isomer, unassigned) [Example 114, (S*)-(2-chloro-3-(trifluoromethyl)phenyl)(8-methyl-4-(1H-pyrazol-5-yl)-5,6-dihydropyrido[3,4-d]pyrimidin-7(8H)-yl)methanone]	166
C[C@@H]1c2ncnc(-c3ccn[nH]3)c2CCN1C(=O)c1ccc(F)c(Cl)c1Cl (single isomer, unassigned) [Example 119, (R*)-(2,3-dichloro-4-fluorophenyl)(8-methyl-4-(1H-pyrazol-5-yl)-5,6-dihydropyrido[3,4-d]pyrimidin-7(8H)-yl)methanone]	28.4
C[C@H]1c2ncnc(-c3ccn[nH]3)c2CCN1C(=O)c1ccc(F)c(Cl)c1Cl (single isomer, unassigned) [Example 120, (S*)-(2,3-dichloro-4-fluorophenyl)(8-methyl-4-(1H-pyrazol-5-yl)-5,6-dihydropyrido[3,4-d]pyrimidin-7(8H)-yl)methanone]	1510
Cc1cccc(C(=O)N2CCc3c(ncnc3-c3ccn[nH]3)C2)c1Cl [Example 8, 7-[(2-Chloro-3-methylphenyl)carbonyl]-4-(1H-pyrazol-5-yl)-5,6,7,8-tetrahydropyrido[3,4-d]pyrimidine]	> 10000
Cc1nc2c(c(-n3nccn3)n1)CCN(C(=O)c1cccc(C(F)(F)F)c1Cl)C2 [Example 47, 7-{[2-Chloro-3-(trifluoromethyl)phenyl]carbonyl}-2-methyl-4-(2H-1,2,3-triazol-2-yl)-5,6,7,8-tetrahydropyrido[3,4-d]pyrimidine]	7.9
